Measured values taken from ChEMBL document CHEMBL1201862, “PubChem BioAssay data set” (2004).
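Each compound was tested at five concentrations against cells in 96-well plates for 48 hours. GI50 = concentration required for 50% inhibition of growth.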 The source made the active and inactive calls. Cut-off read from the data, not from the text of the source: active = GI50 up to about 1.1 µM and inactive = higher.

How the values were obtained:
Experiment in all cases: inhibition of tumour cell growth, NCI panel, 48 h
RXF 631 = test system: RXF 631
KM-20L2 = test system: KM-20L2
M19-MEL = test system: M19-MEL
HOP-18 = test system: HOP-18
DMS-114 = test system: DMS-114
XF498 = test system: XF498
DLD-1 = test system: DLD-1
SNB-78 = test system: SNB-78
LXFL 529 = test system: LXFL 529

Compound	GI50 (RXF 631)	GI50 (KM-20L2)	GI50 (M19-MEL)	GI50 (HOP-18)	GI50 (DMS-114)	GI50 (XF498)	GI50 (DLD-1)	GI50 (SNB-78)	GI50 (LXFL 529)
CC1NOC(=O)C1/N=N/c1ccc(Cl)cc1Cl (stereo not drawn)	38.2 µM (inactive)	30.6 µM (inactive)	27.2 µM (inactive)	18.5 µM (inactive)	24.2 µM (inactive)	23.1 µM (inactive)	33.9 µM (inactive)	26.3 µM (inactive)	21.9 µM (inactive)
CCOc1ccc(NC(=O)/C(Cc2nc3ccccc3nc2O)=N\O)cc1		> 100 µM (inactive)	> 100 µM (inactive)		> 100 µM (inactive)		> 100 µM (inactive)	> 100 µM (inactive)	> 100 µM (inactive)
O=C(CO[N+](=O)[O-])OCC(=O)c1ccccc1	> 100 µM (inactive)	> 100 µM (inactive)	> 100 µM (inactive)				> 100 µM (inactive)		> 100 µM (inactive)
COc1ccc(-c2cc(-c3ccccc3)c(C#N)c(=O)[nH]2)cc1	> 100 µM (inactive)	> 100 µM (inactive)	> 100 µM (inactive)	> 100 µM (inactive)	> 100 µM (inactive)		> 100 µM (inactive)	> 100 µM (inactive)	> 100 µM (inactive)
O=C1Nc2cc(Cl)ccc2N=CC1NC(=O)C(c1ccccc1)c1ccccc1Cl (stereo not drawn)	> 100 µM (inactive)	> 100 µM (inactive)	> 100 µM (inactive)	27.5 µM (inactive)	> 100 µM (inactive)		> 100 µM (inactive)	> 100 µM (inactive)	> 100 µM (inactive)
[N-]=[N+]=CC(=O)C1(C(=O)C=[N+]=[N-])CC1		> 100 µM (inactive)	> 100 µM (inactive)	> 100 µM (inactive)	> 100 µM (inactive)	> 100 µM (inactive)		> 100 µM (inactive)	> 100 µM (inactive)
CCOC(=O)C(=Cc1ccc(C(=O)OC)cc1)C(=O)OCC		0.845 µM (active)	2.75 µM (inactive)	3.49 µM (inactive)	1.66 µM (inactive)		2.12 µM (inactive)		1.75 µM (inactive)
CCNC(=O)C#CC(=O)NCC	> 100 µM (inactive)	> 100 µM (inactive)	> 100 µM (inactive)	> 100 µM (inactive)	> 72.3 µM (inactive)	> 100 µM (inactive)	> 46.1 µM (inactive)	> 10 µM (inactive)	> 93.8 µM (inactive)
CN1CCN(CCNc2ccc(CO)c3sc4ccccc4c(=O)c23)CC1		4.21 µM (inactive)	12.2 µM (inactive)		9.57 µM (inactive)		11.7 µM (inactive)		9.71 µM (inactive)
CC(C)C(Nc1c2ccccc2[n+]([O-])c2ccccc12)C(=O)O (stereo not drawn)	> 100 µM (inactive)	> 100 µM (inactive)	88.5 µM (inactive)	19.4 µM (inactive)	36.2 µM (inactive)		37.7 µM (inactive)	> 100 µM (inactive)	32.4 µM (inactive)
COc1cccc(-c2cc(C(=O)Nc3ccc(Cl)cc3)nc(N)n2)c1		61.4 µM (inactive)	45.7 µM (inactive)	> 100 µM (inactive)	30.6 µM (inactive)	93.8 µM (inactive)	69.5 µM (inactive)	> 100 µM (inactive)	52.7 µM (inactive)
Cn1c(=O)c2[nH]cnc2n(CC(N)=O)c1=O			> 100 µM (inactive)		> 100 µM (inactive)	> 100 µM (inactive)	> 100 µM (inactive)	> 100 µM (inactive)	> 100 µM (inactive)
Nn1c(S)nnc1NNC(=O)C(=O)Nc1cc(Cl)c(Cl)cc1Cl		> 100 µM (inactive)	> 100 µM (inactive)	71.1 µM (inactive)	> 100 µM (inactive)	90.4 µM (inactive)	> 100 µM (inactive)	> 100 µM (inactive)	> 100 µM (inactive)
COc1ccc2c(CCNS(=O)(=O)c3ccccc3)c(C(C)=O)[nH]c2c1[N+](=O)[O-]	41.4 µM (inactive)	> 100 µM (inactive)						48.5 µM (inactive)	> 100 µM (inactive)
N/N=C(\CC1OC(=O)c2ccccc21)c1ccco1 (stereo not drawn)		> 100 µM (inactive)	> 100 µM (inactive)	< 0.01 µM (active)	> 100 µM (inactive)		> 100 µM (inactive)		> 100 µM (inactive)
O=C(Nc1ccc(Cl)c(Cl)c1)C(=O)Nn1c(S)nc2ccccc2c1=O		> 100 µM (inactive)	> 100 µM (inactive)	> 100 µM (inactive)	> 100 µM (inactive)	> 100 µM (inactive)	> 100 µM (inactive)	> 100 µM (inactive)	> 100 µM (inactive)
Cc1cc(NC(=O)NC(=O)c2ccccc2NC(=O)CN)ccc1Oc1ncc(Br)cn1		0.676 µM (active)			0.191 µM (active)	13.9 µM (inactive)	1.4 µM (inactive)		1.73 µM (inactive)
Cc1ccc(C)c(NC(=O)c2cc(-c3ccc([N+](=O)[O-])cc3)nc(N)n2)c1		> 100 µM (inactive)	> 100 µM (inactive)	> 100 µM (inactive)	> 100 µM (inactive)	> 100 µM (inactive)	> 100 µM (inactive)		> 100 µM (inactive)
COC(=O)c1ccc(OCc2ccc3oc(=O)c(-c4ccccc4)nc3c2)cc1			> 100 µM (inactive)	> 100 µM (inactive)	> 100 µM (inactive)	84.3 µM (inactive)	15.2 µM (inactive)	> 100 µM (inactive)	
O=c1n(CC2CO2)c(=O)n(CC2CO2)c(=O)n1CC1CO1 (stereo not drawn) [TEROXIRONE]		68.5 µM (inactive)	53.7 µM (inactive)	91.8 µM (inactive)	11.4 µM (inactive)		62.1 µM (inactive)	110 µM (inactive)	
CC(C)(C)c1cc(Oc2ccc(C#N)c(C#N)c2)cc(C(C)(C)C)c1	31 µM (inactive)	> 100 µM (inactive)	> 100 µM (inactive)	> 100 µM (inactive)	42.1 µM (inactive)	> 100 µM (inactive)	> 100 µM (inactive)	> 100 µM (inactive)	> 100 µM (inactive)
COc1ccc(-c2cc(Cc3cccs3)c(=O)[nH]n2)cc1		85.5 µM (inactive)	40.3 µM (inactive)		74.6 µM (inactive)			> 100 µM (inactive)	53.8 µM (inactive)
Cc1cc(=O)oc2cc(OCc3nc4ccccc4c(=O)n3-c3ccccc3)ccc12	> 100 µM (inactive)	> 100 µM (inactive)	> 100 µM (inactive)	> 100 µM (inactive)	> 100 µM (inactive)		> 100 µM (inactive)		> 100 µM (inactive)
Clc1ccc(-n2nnc(C3=NCCCN3)c2-c2ccccc2)cc1		> 100 µM (inactive)	> 100 µM (inactive)	> 100 µM (inactive)	> 100 µM (inactive)	> 100 µM (inactive)	> 100 µM (inactive)	> 100 µM (inactive)	> 100 µM (inactive)
O=C(Cc1ccccc1)N/N=C(/c1nc2ccc([N+](=O)[O-])cc2nc1O)C(O)c1ccco1 (stereo not drawn)			> 100 µM (inactive)	> 100 µM (inactive)	46.8 µM (inactive)	> 100 µM (inactive)	> 100 µM (inactive)	> 100 µM (inactive)	87.9 µM (inactive)
COC(=O)c1c/c(=N\NC(=O)CC(=O)Nc2ccc(C)cc2)c2ccccc2o1		> 100 µM (inactive)	> 100 µM (inactive)	> 100 µM (inactive)	> 100 µM (inactive)	> 100 µM (inactive)	> 100 µM (inactive)	> 100 µM (inactive)	> 100 µM (inactive)
C[C@]12CCC(=O)C=C1CC[C@@H]1[C@@H]2CC[C@]2(C)C(=O)NC(=O)C[C@@H]12	> 100 µM (inactive)	> 100 µM (inactive)	> 100 µM (inactive)	> 100 µM (inactive)	> 100 µM (inactive)	> 100 µM (inactive)	> 100 µM (inactive)	> 100 µM (inactive)	> 100 µM (inactive)
